≈ marks a conversion by molar mass, not a printed value.
What was measured:
[1] = tested on: B16; assay: Cytotoxicity against mouse B16 cells assessed as reduction in cell viability incubated for 72 hrs by MTT assay; type: functional, cell-based; conditions: B16, 72 h
[2] = tested on: HL-60; assay: Cytotoxicity against human HL-60 cells assessed as reduction in cell viability incubated for 72 hrs by MTT assay; type: functional, cell-based; conditions: HL-60, 72 h
[3] = tested on: HCT-8; assay: Cytotoxicity against human HCT-8 cells assessed as reduction in cell viability incubated for 72 hrs by MTT assay; type: functional, cell-based; conditions: HCT-8, 72 h
[4] = tested on: SF-295; assay: Cytotoxicity against human SF-295 cells assessed as reduction in cell viability incubated for 72 hrs by MTT assay; type: functional, cell-based; conditions: SF-295, 72 h
[5] = tested on: MDA-MB-435; assay: Cytotoxicity against human MDA-MB-435 cells assessed as reduction in cell viability incubated for 72 hrs by MTT assay; type: functional, cell-based; conditions: MDA-MB-435, 72 h
[6] = tested on: Enterococcus faecalis; assay: Antibacterial activity against Enterococcus faecalis clinical isolates assessed as bacterial growth inhibition by broth macrodilution method; type: functional
[7] = tested on: PC-3; assay: Cytotoxicity against human PC-3 cells assessed as reduction in cell viability incubated for 72 hrs by MTT assay; type: functional, cell-based; conditions: PC-3, 72 h
[8] = tested on: HepG2; assay: Cytotoxicity against human HepG2 cells assessed as reduction in cell viability incubated for 72 hrs by MTT assay; type: functional, cell-based; conditions: HepG2, 72 h
[9] = Selectivity index, ratio of IC50 for human L02 cells to IC50 for human HepG2 cells; type: toxicity; conditions: L02 cells versus HepG2 cells, read-out: Ratio IC50
[10] = tested on: Sporothrix; assay: Antifungal activity against Sporothrix brasiliensis assessed as fungal growth inhibition incubated for 48 hrs by CLSI-based broth microdilution assay; type: functional
[11] = tested on: Sporothrix schenckii; assay: Antifungal activity against Sporothrix schenckii assessed as fungal growth inhibition incubated for 48 hrs by CLSI-based broth microdilution assay; type: functional
[12] = tested on: HCT-116; assay: Cytotoxicity against human HCT-116 cells assessed as reduction in cell viability incubated for 72 hrs by MTT assay; type: functional, cell-based; conditions: HCT-116, 72 h
[13] = tested on: NCI-H1975; assay: Cytotoxicity against human NCI-H1975 cells assessed as reduction in cell viability incubated for 72 hrs by MTT assay; type: functional, cell-based; conditions: NCI-H1975, 72 h
[14] = Elimination half life in human at 1.5 mg/kg, iv; type: ADME, organism-based; conditions: in vivo, read-out: beta t1/2 (converted)
[15] = Clearance in human; type: ADME
[16] = Selectivity index, ratio of IC50 for human PBMC cells to IC50 for human HL-60 cells; type: toxicity; conditions: PBMC cells versus HL-60 cells, read-out: Ratio IC50
[17] = Volume of distribution at steady state in human; type: ADME
[18] = Oral bioavailability in human at 40 mg/kg; type: ADME, organism-based; conditions: in vivo
[19] = tested on: Trypanosoma cruzi; assay: Antitrypanosomal activity against bloodstream form of Trypanosoma cruzi Y trypomastigotes infected in albino mouse assessed as reduction in viable parasite in blood incubated for 24 hrs by Neubauer counting chamber method; type: functional, organism-based
[20] = tested on: Mycobacterium tuberculosis; assay: Antimycobacterial activity against Mycobacterium tuberculosis H37Rv ATCC 27294 assessed as bacterial growth inhibition incubated for 5 days by Alamar blue reagent based assay; type: functional; conditions: ATCC 27294, 120 h, time 5 day
[21] = tested on: Sporothrix schenckii; assay: Antifungal activity against Sporothrix schenckii assessed as fungal growth inhibition incubated for 48 hrs in presence of itraconazole by CLSI-based broth microdilution assay; type: functional
[22] = tested on: Sporothrix; assay: Antifungal activity against Sporothrix brasiliensis assessed as fungal growth inhibition incubated for 48 hrs in presence of itraconazole by CLSI-based broth microdilution assay; type: functional
[23] = tested on: HCT-116; assay: Cytotoxicity against human HCT-116 cells assessed as reduction in cell viability incubated for 48 hrs by MTT assay; type: functional, cell-based; conditions: HCT-116, 48 h
[24] = tested on: HepG2; assay: Cytotoxicity against human HepG2 cells assessed as reduction in cell viability incubated for 48 hrs by MTT assay; type: functional, cell-based; conditions: HepG2, 48 h
[25] = Cytotoxicity against human ACP02 cells assessed as reduction in cell viability incubated for 72 hrs by alamar blue assay; type: functional, cell-based; conditions: ACP02, 72 h
[26] = tested on: K562; assay: Cytotoxicity against human K562 cells assessed as reduction in cell viability incubated for 72 hrs by alamar blue assay; type: functional, cell-based; conditions: K562, 72 h
[27] = Cytotoxicity against human AGP01 cells assessed as reduction in cell viability incubated for 72 hrs by alamar blue assay; type: functional, cell-based; conditions: AGP01, 72 h
[28] = tested on: SCC-15; assay: Cytotoxicity against human SCC-15 cells assessed as reduction in cell viability incubated for 72 hrs by alamar blue assay; type: functional, cell-based; conditions: SCC-15, 72 h
[29] = tested on: HepG2; assay: Cytotoxicity against human HepG2 cells assessed as reduction in cell viability incubated for 72 hrs by alamar blue assay; type: functional, cell-based; conditions: HepG2, 72 h
[30] = tested on: SCC-4; assay: Cytotoxicity against human SCC-4 cells assessed as reduction in cell viability incubated for 72 hrs by alamar blue assay; type: functional, cell-based; conditions: SCC-4, 72 h
[31] = tested on: HT-29; assay: Cytotoxicity against human HT-29 cells assessed as reduction in cell viability incubated for 72 hrs by alamar blue assay; type: functional, cell-based; conditions: HT-29, 72 h
[32] = Cytotoxicity against human ACP03 cells assessed as reduction in cell viability incubated for 72 hrs by alamar blue assay; type: functional, cell-based; conditions: ACP03, 72 h
[33] = tested on: HCT-116; assay: Cytotoxicity against human HCT-116 cells assessed as reduction in cell viability incubated for 72 hrs by alamar blue assay; type: functional, cell-based; conditions: HCT-116, 72 h
[34] = tested on: SCC-25; assay: Cytotoxicity against human SCC-25 cells assessed as reduction in cell viability incubated for 72 hrs by alamar blue assay; type: functional, cell-based; conditions: SCC-25, 72 h
[35] = tested on: SCC-9; assay: Cytotoxicity against human SCC-9 cells assessed as reduction in cell viability incubated for 72 hrs by alamar blue assay; type: functional, cell-based; conditions: SCC-9, 72 h
[36] = tested on: HL-60; assay: Cytotoxicity against human HL-60 cells assessed as reduction in cell viability incubated for 72 hrs by alamar blue assay; type: functional, cell-based; conditions: HL-60, 72 h
[37] = tested on: HSC-3; assay: Cytotoxicity against human HSC-3 cells assessed as reduction in cell viability incubated for 72 hrs by alamar blue assay; type: functional, cell-based; conditions: HSC-3, 72 h

## CC1(C)OC2=C(C(=O)C(=O)c3ccccc32)C1n1cc(C2(O)CCCCC2)nn1 (stereo not drawn)
[1]
  IC50: 430 nM
[2]
  IC50: 430 nM
[3]
  IC50: 430 nM
[4]
  IC50: 430 nM
[5]
  IC50: 430 nM
[6]
  MIC: 16 µg/mL (≈ 40.7 µM)
[7]
  IC50: 430 nM

## O=C1C(=O)c2ccccc2C2=C1C1(C(=O)Nc3ccc(F)cc31)N1NN=NC1=N2 (stereo not drawn)
[8]
  IC50: 2860 nM
[9]
  selectivity ratio: 20.6

## CCC(C)n1ncn(-c2ccc(N3CCN(c4ccc(OCC5COC(Cn6cncn6)(c6ccc(Cl)cc6Cl)O5)cc4)CC3)cc2)c1=O (stereo not drawn) [ITRACONAZOLE]
[10]
  MIC: 0.125 µM (≈ 0.0882 µg/mL)
[11]
  MIC: 0.125 µM (≈ 0.0882 µg/mL)

## CC1(C)CCC2=C(O1)c1ccccc1/C(=N/O)C2=O
[2]
  IC50: 3840 nM
[4]
  IC50: 3470 nM
[12]
  IC50: 2620 nM
[13]
  IC50: 2620 nM

## CC1(C)CCC2=C(O1)c1ccccc1C(=O)C2=O [LAPACHONE]
[14]
  half-life: 2.45 h
[15]
  CL: 114 L/hr/m2
[16]
  selectivity ratio: 827
[17]
  Vdss: 490 L/m2
[18]
  bioavailability: 15.5%
[19]
  IC50: 392000 nM

## O=C1C(=O)c2ccccc2C2=C1CCC(c1ccccc1)O2 (stereo not drawn)
[20]
  MIC: 2.5 µg/mL (≈ 8.61 µM)

## CC1(c2ccccc2)CC2=C(O1)c1ccccc1C(=O)C2=O (stereo not drawn)
[21]
  MIC: 0.06 µM
[10]
  MIC: 2 µM (≈ 0.581 µg/mL)
[11]
  MIC: 2 µM (≈ 0.581 µg/mL)
[22]
  MIC: 0.03 µM

## CC1(C)OC2=C(C(=O)C(=O)c3ccccc32)C1n1cc(-c2ccccc2)nn1 (stereo not drawn)
[1]
  IC50: < 1210 nM
[2]
  IC50: 1210 nM
[3]
  IC50: < 1210 nM
[4]
  IC50: < 1210 nM
[5]
  IC50: < 1210 nM
[6]
  MIC: 8 µg/mL (≈ 21.5 µM)
[7]
  IC50: < 1210 nM

## O=C1C(=O)c2ccccc2C2=C1CC(c1ccccc1)O2 (stereo not drawn)
[21]
  MIC: 0.06 µM
[10]
  MIC: 2 µM (≈ 0.553 µg/mL)
[11]
  MIC: 2 µM (≈ 0.553 µg/mL)
[22]
  MIC: 0.03 µM

## COc1cc(OC)cc(C2C3=C(N=C4N=NNN42)c2ccccc2C(=O)C3=O)c1 (stereo not drawn)
[23]
  IC50: 220 nM
[24]
  IC50: 1180 nM

## CC1(C)OC2=C(CC1I)C(=O)C(=O)c1ccccc12 (stereo not drawn)
[25]
  IC50: 20 nM
[26]
  IC50: 20 nM
[27]
  IC50: 20 nM
[28]
  IC50: 20 nM
[29]
  IC50: 20 nM
[16]
  selectivity ratio: 1690
[30]
  IC50: 20 nM
[31]
  IC50: 20 nM
[32]
  IC50: 20 nM
[33]
  IC50: 20 nM
[34]
  IC50: 20 nM
[35]
  IC50: 20 nM
[36]
  IC50: 20 nM
[37]
  IC50: 20 nM

Reference: ChEMBL document CHEMBL5104093, “A comprehensive review on β-lapachone: Mechanisms, structural modifications, and therapeutic potentials” (Eur J Med Chem, 2021)
